{"source": "patent US7759382B2", "about": "“Acylated amino acid amidyl pyrazoles and related compounds” (Elan Pharmaceuticals, Inc., priority 2003, dated 2010)", "tested_on": "β-amyloid peptide release and/or its synthesis", "assay": "inhibition of β-amyloid peptide release and/or its synthesis (test not specified)", "format": "cell-based", "settings": "statement in words only; no assay or value given", "data": [{"smiles": "CC(C)(C)c1cc(NC(=O)c2cccc(N(C=O)Cc3cc(F)cc(F)c3)c2)[nH]n1", "note": "[Example 110]", "values": [{"measurement": "inhibits β-amyloid peptide release and/or its synthesis", "result": "inhibits β-amyloid peptide release and/or its synthesis"}]}, {"smiles": "CC(C)(C)c1cc(NC(=O)c2cccc(Nc3cc(F)cc(F)c3)c2)[nH]n1", "note": "[Example 111, N-(5-tert-Butyl-2H-pyrazol-3-yl)-3-(3,5-difluoro-phenylamino)-benzamide]", "values": [{"measurement": "inhibits β-amyloid peptide release and/or its synthesis", "result": "inhibits β-amyloid peptide release and/or its synthesis"}]}]}
